Laboratory results from patent publication US11760773B2, “Small molecule drug conjugates of gemcitabine monophosphate” (MaveriX Oncology, Inc., priority 2018, dated 2023).

Assays:
[1] = Int 1-4 dog plasma PK (study j); format: in vivo; settings: male beagle dog
Procedure: Objectives: to compare the plasma pharmacokinetics and stability of Int 1-4 in plasma following single intravenous infusion administration of t 1-4 at 10 mg/kg and 20 mg/kg in the male Beagle dog.

[2] = Int 1-4 and gemcitabine comparative PK in male cynomolgus monkey (study g); format: in vivo; settings: plasma, male cynomolgus monkey
Procedure: Objectives: to compare the plasma pharmacokinetics and stability of Int 1-4 versus gemcitabine in plasma following single intravenous infusion administration of Int 1-4 at 5 mg/kg and 10 mg/kg with equimolar gemcitabine at 2.65 mg/kg and 5.29 mg/kg in male cynomolgous monkeys
PK measurements: compare PK parameters C0, CL, Vdss, Cmax, tmax, t1/2, AUC(0-t), AUC(0-inf), MRT(0-t), MRT(0-inf) for Int 1-4 with gemcitabine

[3] = Comparative PK of Int 1-4 versus gemcitabine in rat plasma (study i); format: in vivo, Sprague-Dawley rats; settings: plasma, Sprague-Dawley rat
Excerpt: PK measurements: compare PK parameters C0, CL, Vdss, Cmax, tmax, t1/2, AUC(0-t), AUC(0-inf), MRT(0-t), MRT(0-inf) for Int 1-4 and gemcitabine.

[4] = Comparative plasma PK of Compound 1 versus Int 1-4 in male CD-1 mice (study b); format: in vivo
Procedure: Objectives: to compare the plasma pharmacokinetics and stability of Compound 1 with its non-phosphorylated SMDC analog (Int 1-4) and in plasma following a single intravenous infusion administration of Compound 1 at 11.6 mg/kg and 23.2 mg/kg with Int 1-4 (formulation F1 & F2) at 10.0 mg/kg in male CD-1 mice
PK measurements: compare PK parameters C0, CL, Vdss, Cmax, tmax, t1/2, AUC(0-t), AUC(0-inf), MRT(0-t), MRT(0-inf) for Compound 1 and Int 1-4

[5] = Comparative plasma PK of Int 1-4 versus gemcitabine in mouse (study a); format: in vivo; settings: CD-1 mice; for AUC0-inf/AUC0-last / AUC0-last / AUC(0-inf) / Cmax / MRT0-inf / MRT0-last / T1/2 / Tmax: plasma
[6] = Comparative dog plasma PK of Int 1-4 versus gemcitabine (study k); format: in vivo; settings: male beagle dog
Procedure: Objectives: to compare the plasma pharmacokinetics and stability of Int-4 in plasma following single intravenous infusion administration of Int 1-4 at 5 mg/kg and 10 mg/kg versus gemcitabine at 5 mg/kg in the male Beagle dog

[7] = after iv Int 1-4 10 mg/kg (study j)
[8] = after iv Int 1-4 20 mg/kg (study j)
[9] = after iv Int 1-4 5 mg/kg (study g)
[10] = after iv Int 1-4 10 mg/kg (study g)
[11] = after iv gemcitabine 2.65 mg/kg
[12] = after iv gemcitabine 4.47 mg/kg
[13] = after iv Int 1-4 10.0 mg/kg, Formulation 1
[14] = after iv Int 1-4 10.0 mg/kg, Formulation 2
[15] = after iv gemcitabine 5.29 mg/kg
[16] = after iv Int 1-4 5 mg/kg (study k)
[17] = after iv Int 1-4 10 mg/kg (study k)

Work on `O=c1ccn(C2OC(CO)C(O)C2(F)F)c(=O)[nH]1` (stereo not drawn) [dFdU] yielded an AUC0-last [1, 7] of 13167 ng·h/mL, an AUC(0-inf) [1, 7] of 14300 ng·h/mL and a Cmax [1, 7] of 1173 ng/mL. The MRT0-inf [1, 7] was 15.33 h, the MRT0-last [1, 7] was 9.20 h and the Tmax [1, 7] was 3.33 h. The t1/2 [1, 7] was 10.0 h, the AUC0-last [1, 8] was 31267 ng·h/mL and the AUC(0-inf) [1, 8] was 40233 ng·h/mL. The Cmax [1, 8] was 2873 ng/mL, the MRT0-inf [1, 8] was 15.97 h and the MRT0-last [1, 8] was 9.27 h. It also gave a Tmax [1, 8] of 2.00 h, a t1/2 [1, 8] of 10.53 h and an AUC0-last [2, 9] of 4117 ng·h/mL. The AUC(0-inf) [2, 9] was 5555 ng·h/mL, the Cmax [2, 9] was 302 ng/mL and the MRT0-inf [2, 9] was 24.01 h. The MRT0-last [2, 9] was 10.31 h, the Tmax [2, 9] was 1.69 h and the t1/2 [2, 9] was 16.86 h. The AUC0-last [2, 10] was 5120 ng·h/mL, the AUC(0-inf) [2, 10] was 7903 ng·h/mL and the Cmax [2, 10] was 595 ng/mL. For the same molecule, the MRT0-inf [2, 10] was 18.02 h, the MRT0-last [2, 10] was 8.30 h and the Tmax [2, 10] was 0.67 h. The t1/2 [2, 10] was 12.87 h, the AUC0-last [2, 11] was 7703 ng·h/mL and the AUC(0-inf) [2, 11] was 8837 ng·h/mL. The Cmax [2, 11] was 1973 ng/mL, the MRT0-inf [2, 11] was 9.35 h and the MRT0-last [2, 11] was 6.41 h. For the same molecule, the Tmax [2, 11] was 0.09 h, the t1/2 [2, 11] was 5.89 h and the AUC0-last ([3]; after iv Int 1-4 10.0 mg/kg) was 288 ng·h/mL. It also gave a Cmax ([3]; after iv Int 1-4 10.0 mg/kg) of 66.5 ng/mL, an MRT0-last ([3]; after iv Int 1-4 10.0 mg/kg) of 5.55 h and a Tmax ([3]; after iv Int 1-4 10.0 mg/kg) of 8.00 h. For the same molecule, the AUC0-last [3, 12] was 1085 ng·h/mL, the Cmax [3, 12] was 222 ng/mL and the MRT0-last [3, 12] was 5.25 h. For the same molecule, the Tmax [3, 12] was 8.00 h, the AUC0-last ([4]; after iv Compound 1 11.6 mg/kg) was 967 ng·h/mL and the AUC(0-inf) ([4]; after iv Compound 1 11.6 mg/kg) was 786 ng·h/mL. It also gave a Cmax ([4]; after iv Compound 1 11.6 mg/kg) of 220 ng/mL, an MRT0-inf ([4]; after iv Compound 1 11.6 mg/kg) of 3.81 h and an MRT0-last ([4]; after iv Compound 1 11.6 mg/kg) of 3.70 h. The Tmax ([4]; after iv Compound 1 11.6 mg/kg) was 3.25 h, the t1/2 ([4]; after iv Compound 1 11.6 mg/kg) was 2.38 h and the AUC0-last ([4]; after iv Compound 1 23.2 mg/kg) was 1960 ng·h/mL. The AUC(0-inf) ([4]; after iv Compound 1 23.2 mg/kg) was 1830 ng·h/mL, the Cmax ([4]; after iv Compound 1 23.2 mg/kg) was 378 ng/mL and the MRT0-inf ([4]; after iv Compound 1 23.2 mg/kg) was 4.48 h. For the same molecule, the MRT0-last ([4]; after iv Compound 1 23.2 mg/kg) was 3.65 h, the Tmax ([4]; after iv Compound 1 23.2 mg/kg) was 4.00 h and the t1/2 ([4]; after iv Compound 1 23.2 mg/kg) was 2.86 h. It also gave an AUC0-last [4, 13] of 983 ng·h/mL, an AUC(0-inf) [4, 13] of 1124 ng·h/mL and a Cmax [4, 13] of 213 ng/mL. It also gave an MRT0-inf [4, 13] of 4.67 h, an MRT0-last [4, 13] of 3.59 h and a Tmax [4, 13] of 4.00 h. It also gave a t1/2 [4, 13] of 3.06 h, an AUC0-last [4, 14] of 1106 ng·h/mL and an AUC(0-inf) [4, 14] of 1625 ng·h/mL. For the same molecule, the Cmax [4, 14] was 236 ng/mL, the MRT0-inf [4, 14] was 5.89 h and the MRT0-last [4, 14] was 3.95 h. For the same molecule, the Tmax [4, 14] was 4.00 h, the t1/2 [4, 14] was 4.15 h and the “plasma levels of dFdU higher than gemcitabine, based on the ratios of AUC0-last” value [5, 15] was about 500%. For the same molecule, the AUC0-inf/AUC0-last ([5]; after iv Int 1-4 9.4 mg/kg) was 120%, the AUC0-last ([5]; after iv Int 1-4 9.4 mg/kg) was 1039 ng·h/mL and the AUC(0-inf) ([5]; after iv Int 1-4 9.4 mg/kg) was 1440 ng·h/mL. For the same molecule, the Cmax ([5]; after iv Int 1-4 9.4 mg/kg) was 253 ng/mL, the MRT0-inf ([5]; after iv Int 1-4 9.4 mg/kg) was 4.65 h and the MRT0-last ([5]; after iv Int 1-4 9.4 mg/kg) was 2.73 h. For the same molecule, the T1/2 ([5]; after iv Int 1-4 9.4 mg/kg) was 3.08 h, the Tmax ([5]; after iv Int 1-4 9.4 mg/kg) was 1.00 h and the AUC0-inf/AUC0-last [5, 15] was 111%. The AUC0-last [5, 15] was 6827 ng·h/mL, the AUC(0-inf) [5, 15] was 8187 ng·h/mL and the Cmax [5, 15] was 1600 ng/mL. It also gave an MRT0-inf [5, 15] of 3.49 h, an MRT0-last [5, 15] of 2.56 h and a T1/2 [5, 15] of 2.23 h. For the same molecule, the Tmax [5, 15] was 0.667 h, the AUC0-last [6, 16] was 9863 ng·h/mL and the AUC(0-inf) [6, 16] was 13743 ng·h/mL. For the same molecule, the Cmax [6, 16] was 715 ng/mL, the MRT0-inf [6, 16] was 18.22 h and the MRT0-last [6, 16] was 9.89 h. For the same molecule, the Tmax [6, 16] was 4.00 h, the t1/2 [6, 16] was 11.79 h and the AUC0-last [6, 17] was 11700 ng·h/mL. The AUC(0-inf) [6, 17] was 13800 ng·h/mL, the Cmax [6, 17] was 936 ng/mL and the MRT0-inf [6, 17] was 12.99 h. It also gave an MRT0-last [6, 17] of 8.94 h, a Tmax [6, 17] of 2.00 h and a t1/2 [6, 17] of 8.40 h. For the same molecule, the AUC0-last [6, 15] was 20133 ng·h/mL, the AUC(0-inf) [6, 15] was 23967 ng·h/mL and the Cmax [6, 15] was 1813 ng/mL. For the same molecule, the MRT0-inf [6, 15] was 13.31 h, the MRT0-last [6, 15] was 8.71 h and the Tmax [6, 15] was 3.00 h.
